# Results from patent US11957671B2, “Benzodioxane modulators of leukotriene A4 hydrolase (LTA4H) for prevention and treatment of aging-associated diseases” (Alkahest, Inc., priority 2021, dated 2024).
# Test system: synthesis of LTB4 in human whole blood
# Assay: human whole blood (HWB) assay, LTB4 production inhibition
# Type: cell-based
# Details: calcimycin 20 μM
# Experimental: The compounds of the invention are additionally tested in a human whole blood (HWB) assay to determine their ability to inhibit the synthesis of LTB4 in a cellular system. Compounds are combined with heparinized human whole blood and incubated for 15 minutes at 37° C. Calcimycin (20 μM final, prepared in phosphate-buffered saline, pH 7.4) is then added and the mixture is incubated for another 30 minutes at 37° C. The samples are centrifuged for 5 min at low speed (1500×g) and the plasma layer is removed. Plasma LTB4 concentrations are then measured using an antibody-based homogenous time-resolved fluorescence method (CisBio, Bedford, Mass.). In general, the preferred potency range (IC50) of compounds in the HWB assay is between 10 nM to 10 μM, the more preferred potency range is 10 nM to 1 μM, and the most preferred potency range is 10 nM to 100 nM.
row,SMILES,IC50
1,"O=C(NCCO)C1CCN(Cc2ccc(C3COc4ccccc4O3)cc2)CC1 (racemic) [Example 52, 1-[4-(2,3-dihydro-1,4-benzodioxin-2-yl)benzyl]-N-(2-hydroxyethyl)piperidine-4-carboxamide]",145 nM
2,"CC(c1ccc([C@H]2COc3ccccc3O2)cc1)N1CCC(C(=O)O)CC1 (stereo partly drawn) [Example 227, 1-(1-{4-[(2S)-2,3-dihydro-1,4-benzodioxin-2-yl]phenyl}ethyl)piperidine-4-carboxylic acid]",307 nM
3,"O=C1CCCN1CC1CCCN(Cc2ccc(C3COc4ccccc4O3)cc2)C1 (racemic) [Example 10, 1-({1-[4-(2,3-dihydro-1,4-benzodioxin-2-yl)benzyl]piperidin-3-yl}methyl)pyrrolidin-2-one]",352 nM
4,"O=C(O)C[C@@H]1CCCN(Cc2ccc([C@H]3COc4ccccc4O3)cc2)C1 [Example 183, [(3S)-1-{4-[(2S)-2,3-dihydro-1,4-benzodioxin-2-yl]benzyl)piperidin-3-yl]acetic acid]",151 nM
5,"FC1CCN(Cc2ccc([C@H]3COc4cccnc4O3)cc2)CC1 [Example 155, (3S)-3-{4-[(4-fluoropiperidin-1-yl)methyl]phenyl}-2,3-dihydro[1,4]dioxino[2,3-b]pyridine]",95.4 nM
6,"NC(=O)NC1CCN(Cc2ccc(C3COc4ccccc4O3)cc2)CC1 (racemic) [Example 53, 1-{1-[4-(2,3-dihydro-1,4-benzodioxin-2-yl)benzyl]piperidin-4-yl}urea]",155 nM
7,"c1cnc2c(c1)OCC(c1ccc(CN3CCOCC3)cc1)O2 (racemic) [Example 18, 3-[4-(morpholin-4-ylmethyl)phenyl]-2,3-dihydro[1,4]dioxino[2,3-b]pyridine]",176 nM
8,"CC(=O)NC1CCN(Cc2ccc([C@H]3COc4ccccc4O3)cc2)CC1 [Example 178, N-(1-(4-[(2S)-2,3-dihydro-1,4-benzodioxin-2-yl]benzyl}piperidin-4-yl)acetamide]",160 nM
9,"COCC(=O)NC1CCN(Cc2ccc([C@H]3COc4ccccc4O3)cc2)CC1 [Example 219, N-(1-{4-[(2S)-2,3-dihydro-1,4-benzodioxin-2-yl]benzyl}piperidin-4-yl)-2-methoxyacetamide]",149 nM
10,"c1cnc2c(c1)OC[C@H](c1ccc(CN3[C@H]4CC[C@@H]3CC4)cc1)O2 [Example 145, (3S)-3-{4-[(1s,4s)-7-azabicyclo[2.2.1]hept-7-ylmethyl]phenyl}-2,3-dihydro[1,4]dioxino[2,3-b]pyridine]",28.4 nM
11,"OCC1CCCN(Cc2ccc([C@H]3COc4ccccc4O3)cc2)C1 (stereo partly drawn) [Example 69, (1-{4-[(2S)-2,3-dihydro-1,4-benzodioxin-2-yl]benzyl}piperidin-3-yl)methanol]",165 nM
12,"O[C@H]1CCN(Cc2ccc(C3COc4ccccc4O3)cc2)C1 (stereo partly drawn) [Example 9, (3S)-1-[4-(2,3-dihydro-1,4-benzodioxin-2-yl)benzyl]pyrrolidin-3-ol]",285 nM
13,"NC(=O)CN1CCCC12CCN(Cc1ccc([C@H]3COc4ccccc4O3)cc1)C2 (stereo partly drawn) [Example 123, 2-(7-{4-[(2S)-2,3-dihydro-1,4-benzodioxin-2-yl]benzyl}-1,7-diazaspiro[4.4]non-1-yl)acetamide]",312 nM
14,"CC(C)(C(=O)O)C1CCN(Cc2ccc([C@H]3COc4ccccc4O3)cc2)CC1 [Example 229, 2-(1-{4-[(2S)-2,3-dihydro-1,4-benzodioxin-2-yl]benzyl}piperidin-4-yl)-2-methylpropanoic acid]",290 nM
15,"CC(=O)N1CC[C@@H](NCc2ccc([C@H]3COc4ccccc4O3)cc2)C1 [Example 64, 1-[(3R)-3-({4-[(2S)-2,3-dihydro-1,4-benzodioxin-2-yl]benzyl}amino)pyrrolidin-1-yl]ethanone]",158 nM
16,"O=C1NCCCC12CCN(Cc1ccc([C@H]3COc4ccccc4O3)cc1)CC2 [Example 116, 9-{4-[(2S)-2,3-dihydro-1,4-benzodioxin-2-yl]benzyl}-2,9-diazaspiro[5.5]undecan-1-one]",310 nM
17,"CN(Cc1ccc([C@H]2COc3ccccc3O2)cc1)C1CCCCC1 [Example 67, N-{4-[(2S)-2,3-dihydro-1,4-benzodioxin-2-yl]benzyl}-N-methylcyclohexanamine]",346 nM
18,"CN1CCC2(CCN(Cc3ccc([C@H]4COc5ccccc5O4)cc3)CC2)C1=O [Example 121, 8-{4-[(2S)-2,3-dihydro-1,4-benzodioxin-2-yl]benzyl}-2-methyl-2,8-diazaspiro[4.5]decan-1-one]",159 nM
19,"CNC(=O)C1CCN(Cc2ccc(C3COc4ccccc4O3)cc2)CC1 (racemic) [Example 25, 1-[4-(2,3-dihydro-1,4-benzodioxin-2-yl)benzyl]-N-methylpiperidine-4-carboxamide]",294 nM
20,"O=C(C1CCN(Cc2ccc(C3COc4ccccc4O3)cc2)CC1)N1CCOCC1 (racemic) [Example 37, {1-[4-(2,3-dihydro-1,4-benzodioxin-2-yl)benzyl]piperidin-4-yl}(morpholin-4-yl)methanone]",324 nM
21,"COC1CCN(Cc2ccc([C@H]3COc4ccccc4O3)cc2)CC1 [Example 98, 1-{4-[(2S)-2,3-dihydro-1,4-benzodioxin-2-yl]benzyl}-4-methoxypiperidine]",180 nM
22,"O=C(O)[C@@H]1CCN(Cc2ccc([C@H]3COc4ccccc4O3)cc2)C1 [Example 214, (3R)-1-{4-[(2S)-2,3-dihydro-1,4-benzodioxin-2-yl]benzyl}pyrrolidine-3-carboxylic acid]",169 nM

# Continued, values first:
row,IC50,SMILES
1,35 nM,"CC(C)(CN1CCCC1)NCc1ccc([C@H]2COc3cccnc3O2)cc1 [Example 157, N-{4-[(3S)-2,3-dihydro[1,4]dioxino[2,3-b]pyridin-3-yl]benzyl}-2-methyl-1-(pyrrolidin-1-yl)propan-2-amine]"
2,24.4 nM,"CN(Cc1ccc([C@H]2COc3cccnc3O2)cc1)C1CCCC1 [Example 142, N-{4-[(3S)-2,3-dihydro[1,4]dioxino[2,3-b]pyridin-3-yl]benzyl}-N-methylcyclopentanamine]"
3,76 nM,"CN(CCc1ccccn1)Cc1ccc([C@H]2COc3cccnc3O2)cc1 [Example 138, N-{4-[(3S)-2,3-dihydro[1,4]dioxino[2,3-b]pyridin-3-yl]benzyl}-N-methyl-2-(pyridin-2-yl)ethanamine]"
4,80.7 nM,"CN(Cc1ccc([C@H]2COc3ccccc3O2)cc1)C(C)(C)C [Example 81, N-{4-[(2S)-2,3-dihydro-1,4-benzodioxin-2-yl]benzyl}-N,2-dimethylpropan-2-amine]"
5,94.8 nM,"O=C(O)c1ccc(CC2CCN(Cc3ccc([C@H]4COc5cccnc5O4)cc3)CC2)cc1 [Example 234, 4-[(1-{4-[(3S)-2,3-dihydro[1,4]dioxino[2,3-b]pyridin-3-yl]benzyl}piperidin-4-yl)methyl]benzoic acid]"
6,32.3 nM,"c1cnc2c(c1)OC[C@H](c1ccc(CN3CCCC3)cc1)O2 [Example 126, (3S)-3-[4-(pyrrolidin-1-ylmethyl)phenyl]-2,3-dihydro[1,4]dioxino[2,3-b]pyridine]"
7,72.6 nM,"NC(=O)NC1CCN(Cc2ccc([C@H]3COc4ccccc4O3)cc2)CC1 [Example 175, 1-(1-{4-[(2S)-2,3-dihydro-1,4-benzodioxin-2-yl]benzyl}piperidin-4-yl)urea]"
8,39 nM,"COC1CCN(Cc2ccc([C@H]3COc4cccnc4O3)cc2)C1 (stereo partly drawn) [Example 168, (3S)-3-{4-[(3-methoxypyrrolidin-1-yl)methyl]phenyl}-2,3-dihydro[1,4]dioxino[2,3-b]pyridine]"
9,28 nM,"CC(=O)NC1CCN(Cc2ccc([C@H]3COc4cccnc4O3)cc2)CC1 [Example 160, N-(1-{4-[(3S)-2,3-dihydro[1,4]dioxino[2,3-b]pyridin-3-yl)benzyl}piperidin-4-yl)acetamide]"
10,33.5 nM,"CC(=O)N(C)C1CCN(Cc2ccc([C@H]3COc4ccccc4O3)cc2)C1 (stereo partly drawn) [Example 83, N-(1-{4-[(2S)-2,3-dihydro-1,4-benzodioxin-2-yl]benzyl}pyrrolidin-3-yl)-N-methylacetamide]"
11,39.2 nM,"O=C1NCCC12CCN(Cc1ccc([C@H]3COc4cccnc4O3)cc1)CC2 [Example 125, 8-{4-[(3S)-2,3-dihydro[1,4]dioxino[2,3-b]pyridin-3-yl]benzyl}-2,8-diazaspiro[4.5]decan-1-one]"
12,75.5 nM,"CCN(Cc1ccc([C@H]2COc3ccccc3O2)cc1)C1CCCC1 [Example 109, N-{4-[(2S)-2,3-dihydro-1,4-benzodioxin-2-yl]benzyl}-N-ethylcyclopentanamine]"
13,94.6 nM,"O=C(O)CCC1CCN(Cc2ccc([C@H]3COc4ccccc4O3)cc2)CC1 [Example 134, 3-(1-{4-[(2S)-2,3-dihydro-1,4-benzodioxin-2-yl]benzyl}piperidin-4-yl)propanoic acid]"
14,83 nM,"c1ccc2c(c1)OCC(c1ccc(CN3CCCC3)cc1)O2 (stereo not shown) [Example 200, 1-[4-(2,3-dihydro-1,4-benzodioxin-2-yl)benzyl]pyrrolidine]"
15,80.7 nM,"CC1CCCCN1Cc1ccc([C@H]2COc3ccccc3O2)cc1 (stereo partly drawn) [Example 68, 1-{4-[(2S)-2,3-dihydro-1,4-benzodioxin-2-yl]benzyl}-2-methylpiperidine]"
16,33.4 nM,"CCN(C)Cc1ccc([C@H]2COc3cccnc3O2)cc1 [Example 140, N-{4-[(3S)-2,3-dihydro[1,4]dioxino[2,3-b]pyridin-3-yl]benzyl}-N-methylethanamine]"
17,36.5 nM,"OC1CCN(Cc2ccc([C@H]3COc4cccnc4O3)cc2)CC1 [Example 186, 1-{4-[(3S)-2,3-dihydro[1,4]dioxino[2,3-b]pyridin-3-yl]benzyl}piperidin-4-ol]"
18,32.8 nM,"CCN(CC)Cc1ccc([C@H]2COc3cccnc3O2)cc1 [Example 141, N-{4-[(3S)-2,3-dihydro[1,4]dioxino[2,3-b]pyridin-3-yl]benzyl}-N-ethylanamine]"
